Test results reported in the supplement of paper PMC10307832.

Tests used:
Experiment in all cases: relative viability (nuclei count vs DMSO), 5 days (fraction); higher = more cells survive
201T = system: 201T
Procedure, shortened: (§1)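 Lung cancer cell lines in 1536-well plates got either a single drug or a fixed anchor-drug dose together with five library-drug doses (not always all listed) in √10 steps, by pin tool, on the day after seeding. Nuclei were counted after 5 days, and relative viability is the treated-to-vehicle ratio of nuclei counts. Values are medians of duplicate plates.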

ABC-1 = system: ABC-1
Procedure, shortened: as §1

BEN = system: BEN
Procedure, shortened: as §1

HCC-366 = system: HCC-366
Procedure, shortened: as §1

HCC-44 = system: HCC-44
Procedure, shortened: as §1

HCC-78 = system: HCC-78
Procedure, shortened: as §1

LK-2 = system: LK-2
Procedure, shortened: as §1

LOU-NH91 = system: LOU-NH91
Procedure, shortened: as §1

NCI-H1355 = system: NCI-H1355
Procedure, shortened: as §1

NCI-H1666 = system: NCI-H1666
Procedure, shortened: as §1

NCI-H1734 = system: NCI-H1734
Procedure, shortened: as §1

NCI-H1755 = system: NCI-H1755
Procedure, shortened: as §1

NCI-H2009 = system: NCI-H2009
Procedure, shortened: as §1

NCI-H2228 = system: NCI-H2228
Procedure, shortened: as §1

NCI-H2347 = system: NCI-H2347
Procedure, shortened: as §1

NCI-H2405 = system: NCI-H2405
Procedure, shortened: as §1

NCI-H358 = system: NCI-H358
Procedure, shortened: as §1

NCI-H520 = system: NCI-H520
Procedure, shortened: as §1

NCI-H727 = system: NCI-H727
Procedure, shortened: as §1

NCI-H838 = system: NCI-H838
Procedure, shortened: as §1

SW 1573 = system: SW 1573
Procedure, shortened: as §1

UMC-11 = system: UMC-11
Procedure, shortened: as §1

O=c1[nH]c2ccccc2n1C1CCN(CCCC(c2ccc(F)cc2)c2ccc(F)cc2)CC1 [Pimozide] + Cc1nc(NC(=O)N2CCC[C@H]2C(N)=O)sc1-c1ccnc(C(C)(C)C(F)(F)F)c1 [Alpelisib] (partner 2 µM)
relative viability (201T; first compound 0.08 µM): 0.999 | relative viability (201T; first compound 0.253 µM): 1.02 | relative viability (201T; first compound 0.8 µM): 1.05 | relative viability (201T; first compound 2.53 µM): 1.01 | relative viability (201T; first compound 8 µM): 0.921 | relative viability (ABC-1; first compound 0.08 µM): 0.915 | relative viability (ABC-1; first compound 0.253 µM): 1.03 | relative viability (ABC-1; first compound 0.8 µM): 0.834 | relative viability (ABC-1; first compound 2.53 µM): 0.842 | relative viability (ABC-1; first compound 8 µM): 0.675 | relative viability (BEN; first compound 0.08 µM): 1.08 | relative viability (BEN; first compound 0.253 µM): 1.09 | relative viability (BEN; first compound 0.8 µM): 0.961 | relative viability (BEN; first compound 2.53 µM): 0.937 | relative viability (BEN; first compound 8 µM): 1.06 | relative viability (HCC-366; first compound 0.08 µM): 0.354 | relative viability (HCC-366; first compound 0.253 µM): 0.381 | relative viability (HCC-366; first compound 0.8 µM): 0.406 | relative viability (HCC-366; first compound 2.53 µM): 0.425 | relative viability (HCC-366; first compound 8 µM): 0.518 | relative viability (HCC-44; first compound 0.08 µM): 0.856 | relative viability (HCC-44; first compound 0.253 µM): 0.751 | relative viability (HCC-44; first compound 0.8 µM): 0.802 | relative viability (HCC-44; first compound 2.53 µM): 0.736 | relative viability (HCC-44; first compound 8 µM): 0.677 | relative viability (HCC-78; first compound 0.08 µM): 0.406 | relative viability (HCC-78; first compound 0.253 µM): 0.366 | relative viability (HCC-78; first compound 0.8 µM): 0.294 | relative viability (HCC-78; first compound 2.53 µM): 0.293 | relative viability (HCC-78; first compound 8 µM): 0.329 | relative viability (LK-2; first compound 0.08 µM): 1.12 | relative viability (LK-2; first compound 0.253 µM): 1.05 | relative viability (LK-2; first compound 0.8 µM): 1.01 | relative viability (LK-2; first compound 2.53 µM): 1.01 | relative viability (LK-2; first compound 8 µM): 0.779 | relative viability (LOU-NH91; first compound 0.08 µM): 0.459 | relative viability (LOU-NH91; first compound 0.253 µM): 0.731 | relative viability (LOU-NH91; first compound 0.8 µM): 0.723 | relative viability (LOU-NH91; first compound 2.53 µM): 0.733 | relative viability (LOU-NH91; first compound 8 µM): 0.7 | relative viability (NCI-H1355; first compound 0.08 µM): 0.81 | relative viability (NCI-H1355; first compound 0.253 µM): 0.873 | relative viability (NCI-H1355; first compound 0.8 µM): 0.811 | relative viability (NCI-H1355; first compound 2.53 µM): 0.662 | relative viability (NCI-H1355; first compound 8 µM): 0.817 | relative viability (NCI-H1666; first compound 0.08 µM): 0.948 | relative viability (NCI-H1666; first compound 0.253 µM): 1.01 | relative viability (NCI-H1666; first compound 0.8 µM): 0.886 | relative viability (NCI-H1666; first compound 2.53 µM): 0.874 | relative viability (NCI-H1666; first compound 8 µM): 0.728 | relative viability (NCI-H1734; first compound 0.08 µM): 0.675 | relative viability (NCI-H1734; first compound 0.253 µM): 0.664 | relative viability (NCI-H1734; first compound 0.8 µM): 0.68 | relative viability (NCI-H1734; first compound 2.53 µM): 0.744 | relative viability (NCI-H1734; first compound 8 µM): 0.769 | relative viability (NCI-H1755; first compound 0.08 µM): 0.918 | relative viability (NCI-H1755; first compound 0.253 µM): 0.885 | relative viability (NCI-H1755; first compound 0.8 µM): 0.87 | relative viability (NCI-H1755; first compound 2.53 µM): 0.786 | relative viability (NCI-H1755; first compound 8 µM): 0.727 | relative viability (NCI-H2009; first compound 0.08 µM): 1.16 | relative viability (NCI-H2009; first compound 0.253 µM): 1.15 | relative viability (NCI-H2009; first compound 0.8 µM): 1.14 | relative viability (NCI-H2009; first compound 2.53 µM): 1.23 | relative viability (NCI-H2009; first compound 8 µM): 1.05 | relative viability (NCI-H2228; first compound 0.08 µM): 0.623 | relative viability (NCI-H2228; first compound 0.253 µM): 0.755 | relative viability (NCI-H2228; first compound 0.8 µM): 0.735 | relative viability (NCI-H2228; first compound 2.53 µM): 0.737 | relative viability (NCI-H2228; first compound 8 µM): 0.482 | relative viability (NCI-H2347; first compound 0.08 µM): 1.11 | relative viability (NCI-H2347; first compound 0.253 µM): 0.966 | relative viability (NCI-H2347; first compound 0.8 µM): 0.914 | relative viability (NCI-H2347; first compound 2.53 µM): 1.01 | relative viability (NCI-H2347; first compound 8 µM): 0.966 | relative viability (NCI-H2405; first compound 0.08 µM): 0.782 | relative viability (NCI-H2405; first compound 0.253 µM): 0.622 | relative viability (NCI-H2405; first compound 0.8 µM): 0.684 | relative viability (NCI-H2405; first compound 2.53 µM): 0.741 | relative viability (NCI-H2405; first compound 8 µM): 0.61 | relative viability (NCI-H358; first compound 0.08 µM): 0.761 | relative viability (NCI-H358; first compound 0.253 µM): 0.775 | relative viability (NCI-H358; first compound 0.8 µM): 0.786 | relative viability (NCI-H358; first compound 2.53 µM): 0.808 | relative viability (NCI-H358; first compound 8 µM): 0.852 | relative viability (NCI-H520; first compound 0.08 µM): 1.03 | relative viability (NCI-H520; first compound 0.253 µM): 0.88 | relative viability (NCI-H520; first compound 0.8 µM): 0.992 | relative viability (NCI-H520; first compound 2.53 µM): 0.947 | relative viability (NCI-H520; first compound 8 µM): 0.832 | relative viability (NCI-H727; first compound 0.08 µM): 0.569 | relative viability (NCI-H727; first compound 0.253 µM): 0.582 | relative viability (NCI-H727; first compound 0.8 µM): 0.729 | relative viability (NCI-H727; first compound 2.53 µM): 0.547 | relative viability (NCI-H727; first compound 8 µM): 0.519 | relative viability (NCI-H838; first compound 0.08 µM): 0.95 | relative viability (NCI-H838; first compound 0.253 µM): 0.98 | relative viability (NCI-H838; first compound 0.8 µM): 0.967 | relative viability (NCI-H838; first compound 2.53 µM): 1.03 | relative viability (NCI-H838; first compound 8 µM): 1.04 | relative viability (SW 1573; first compound 0.08 µM): 0.795 | relative viability (SW 1573; first compound 0.253 µM): 0.788 | relative viability (SW 1573; first compound 0.8 µM): 0.764 | relative viability (SW 1573; first compound 2.53 µM): 0.91 | relative viability (SW 1573; first compound 8 µM): 0.743 | relative viability (UMC-11; first compound 0.08 µM): 1.05 | relative viability (UMC-11; first compound 0.253 µM): 0.967 | relative viability (UMC-11; first compound 0.8 µM): 1.05 | relative viability (UMC-11; first compound 2.53 µM): 1.04 | relative viability (UMC-11; first compound 8 µM): 1.19
